Data reported in patent US11179381B2, “Intranasal administration of physiologically active substances” (DUTCH RENEWABLE ENERGY B.V., priority 2017, dated 2021).

Tests used:
[1] = Blood erythropoietin after intranasal rh-Erythropoietin (Access EPO immunoassay); assay type: in vivo, human; conditions: from average increases of Tables 9 and 10 (5 wt. % nicotinamide)
Protocol: As a control a composition comprising 400 μg rh-Erythropoietin was used.
An immunoassay (Access erythropoietin (EPO), Beckman Coultier Inc.) was used to quantify the erythropoietin. Briefly, testing was performed on the Beckman Coulter DxI 800 (Beckman Coulter Inc.). […] The light production is directly proportional to the concentration of EPO in the sample. The amount of analyte in the sample was determined from a stored, multi-point calibration curve. (Instruction manual: Beckman Coulter Access EPO, Beckman Coulter Access Immunoassay Systems, Beckman Coulter, Inc, Fullerton Calif. 2009).

[2] = octanol/water partition coefficient; stated without a test; cited from earlier work
[3] = Blood vitamin B12 after intranasal hydroxocobalmin, 75 μg dose (Access Vitamin B12 assay); conditions: from average increases of Tables 7 and 8 (75 μg dose, 5 wt. % nicotinamide)
[4] = Blood vitamin B12 after intranasal hydroxocobalmin, 500 μg dose (Access Vitamin B12 assay); conditions: from average increases of Tables 5 and 6 (500 μg dose, 5 wt. % nicotinamide)
[5] = Blood folate after intranasal spray (Access Folate immunoassay); assay type: in vivo, human; conditions: from average increases of Tables 3 and 4 (3.5 wt. % nicotinamide)
Protocol: Briefly, a serum specimen was treated to release folate from endogenous binding proteins. After neutralization of the reaction mixture, folate-binding protein, mouse antifolate-binding protein, folic acid-alkaline phosphatase conjugate, and goat antimouse capture antibody coupled to paramagnetic particles were added to the reaction vessel. Folate in the sample competes with the folic acid-alkaline phosphatase conjugate for binding sites on a limited amount of folate-binding protein. Resulting complexes bind to the solid phase via mouse antifolate binding protein. […] The instrument used is a Beckman Coulter DXI 800.

| Compound | Increase in absorption relative to control (absence of nicotinamide) [1] [%] | log P [2] | Increase in absorption relative to control (absence of nicotinamide) [3] [%] | Increase in absorption relative to control (absence of nicotinamide) [4] [%] | Increase in absorption relative to control (absence of nicotinamide) [5] [%] |
| --- | --- | --- | --- | --- | --- |
| Erythropoietin: rh-Erythropoietin, molecular weight 34000 | 300 | 0 |  |  |  |
| C/C1=C2/[N-][C@H]([C@H](CC(N)=O)[C@@]2(C)CCC(=O)NC[C@@H](C)OP(=O)([O-])O[C@H]2[C@@H](O)[C@@H](n3cnc4cc(C)c(C)cc43)O[C@@H]2CO)[C@]2(C)N=C(/C(C)=C3N=C(/C=C4N=C1[C@@H](CCC(N)=O)C\4(C)C)[C@@H](CCC(N)=O)[C@]\3(C)CC(N)=O)[C@@H](CCC(N)=O)[C@]2(C)CC(N)=O.[Co+3].[OH-] [Hydroxocobalamin, hydroxocobalamin] |  | −0.9 | 192 | 203 |  |
| Nc1nc2ncc(CNc3ccc(C(=O)N[C@@H](CCC(=O)O)C(=O)O)cc3)nc2c(=O)[nH]1 [Folic acid, folic acid] |  | −0.02 |  |  | 184 |
